Test results from patent US4411925A, “Branched amides of L-aspartyl-d-amino acid dipeptides” (Pfizer Inc., priority 1980, dated 1983).
Square brackets hold non-standard residues; d marks the D form. Peptide text beside a SMILES is read from it. * marks the point of attachment. NHiPr = CC(C)N*; OiPr = CC(C)O*

Assay: not given
Settings: factor used to calculate the theoretical sweetness of the blends; cited from earlier work

With `O=C1NS(=O)(=O)c2ccccc21.[Na]` [sodium saccharin] as the molecule, how does the Sweetness potency factor read?
Its Sweetness potency factor is 300 x sucrose.

Assay: Sweetness potency: gustatory sweetness compared with sucrose standard by expert taste panel
Type: in vivo
Settings: aqueous solutions compared with 7-9% sucrose
Description: The sweetness potency of the instant compounds was determined by comparison of their gustatory sweetnesses with sucrose. Aqueous solutions of the compound of formula (I) diluted to a suitable range of concentrations were compared with a sucrose standard by an expert taste panel. Comparisons were generally made with aqueous sucrose solutions of 7-9%, i.e., 7-9 g. per 100 ml. Higher sucrose concentrations have a distinctive mouthfeel which may influence results and lower sucrose concentration are not indicative of normal use situations. […] All of the sweetness potency values stated herein for the compounds of the invention were determined by this method.

For “L-Aspartyl-D-alanine N-(2,2,4,4-tetramethyltetrahydrothiophene-3-yl)amide [Example 14]”, which Sweetness potency is on record?
The Sweetness potency was 500 x sucrose.

With `CC1CCCCC1NC(=O)[C@@H](C)NC(=O)[C@@H](N)CC(=O)O` (stereo partly drawn) [Example 4, L-Aspartyl-D-alanine N-(2-methycyclohexyl)amide] as the molecule, how does the Sweetness potency read?
The Sweetness potency was 250 x sucrose.

Which Sweetness potency does the source give for `CC[C@@H](NC(=O)[C@@H](N)CC(=O)O)C(=O)NC1C(C)(C)S(=O)(=O)C1(C)C` [Example 21, L-Aspartyl-D-2-aminobutyric acid N-(2,2,4,4-tetramethyl-1,1-dioxothietan-3-yl)amide] here?
The Sweetness potency was 200 x sucrose.

Which Sweetness potency does the source give for `CSC(C)(C)C(NC(=O)[C@@H](C)NC(=O)[C@@H](N)CC(=O)O)C(C)C` (stereo partly drawn) [Example 18, L-Aspartyl-D-alanine N-(2-methylthio-2,4-dimethylpentan-3-yl)amide] here?
Its Sweetness potency is 150 x sucrose.

With `C[C@@H](NC(=O)[C@@H](N)CC(=O)O)C(=O)NC(C1CC1)C(C)(C)C` (mixture of isomers) [Example 6, L-Aspartyl-D-alanine N-(dl-t-butylcyclopropylcarbinyl)amide] as the molecule, how does the Sweetness potency read?
The Sweetness potency was 1200 x sucrose.

With `C[C@@H](NC(=O)[C@@H](N)CC(=O)O)C(=O)NC1C(C)(C)SC1(C)C` [Example 16, L-Aspartyl-D-alanine N-(2,2,4,4-tetramethylthietan-3-yl)amide] as the molecule, how does the Sweetness potency read?
Its Sweetness potency is 2000 x sucrose.

For `C[C@@H](NC(=O)[C@@H](N)CC(=O)O)C(=O)NC(C(C)(C)C)C(C)(C)C` [Example 25, L-Aspartyl-D-alanine N-(2,2,4,4-tetramethyl-3-pentyl)amide], which Sweetness potency is on record?
Its Sweetness potency is 450 x sucrose.

Which Sweetness potency does the source give for `CC[C@@H](NC(=O)[C@@H](N)CC(=O)O)C(=O)NC(C(C)C)C(C)C` [Example 22, L-Aspartyl-D-2-aminobutyric acid N-(2,4-dimethyl-3-pentyl)amide] here?
Its Sweetness potency is 100 x sucrose.

Which Sweetness potency does the source give for `CC(C)[C@@H](NC(=O)[C@@H](N)CC(=O)O)C(=O)NC(C1CC1)C1CC1` [Example 23, L-Aspartyl-D-valine N-(dicyclopropylcarbinyl)amide] here?
The Sweetness potency was 110 x sucrose.

With `CC1CCCC(C)C1NC(=O)[C@@H](C)NC(=O)[C@@H](N)CC(=O)O` (relative stereo) [Example 3] as the molecule, how does the Sweetness potency read?
The Sweetness potency was 600 x sucrose.

For `C[C@@H](NC(=O)[C@@H](N)CC(=O)O)C(=O)NC1C(=O)OCC1(C)C` (mixture of isomers) [Example 27, L-Aspartyl-D-alanine N-(DL-2-amino-3,3-dimethyl-4-hydroxybutanoic acid lactone)amide], which Sweetness potency is on record?
Its Sweetness potency is 100 x sucrose.

Which Sweetness potency does the source give for `CC1CSCC(C)C1NC(=O)[C@@H](C)NC(=O)[C@@H](N)CC(=O)O` (stereo partly drawn) [Example 12, L-Aspartyl-D-alanine-N-(3,5-dimethyltetrahydrothiopyran-4-yl)amide] here?
Its Sweetness potency is 200 x sucrose.

Which Sweetness potency does the source give for `C[C@@H](NC(=O)[C@@H](N)CC(=O)O)C(=O)NC1C(C)(C)CCC1(C)C` [Example 7, L-Aspartyl-D-alanine N-(2,2,5,5-tetramethylcyclopent-l-yl)amide] here?
Its Sweetness potency is 800 x sucrose.

For `CC(C)C(NC(=O)[C@@H](C)NC(=O)[C@@H](N)CC(=O)O)C(C)(C)O` (stereo partly drawn) [Example 26, L-Aspartyl-D-alanine N-(2-hydroxy-2,4-dimethyl-3-pentyl)amide], which Sweetness potency is on record?
Its Sweetness potency is 125 x sucrose.

For `C[C@@H](NC(=O)[C@@H](N)CC(=O)O)C(=O)NC1C(C)(C)CSC1(C)C` (mixture of isomers) [L-Aspartyl-D-alanine N-(2,2,4,4-tetramethyltetrahydrothiophene-3-yl)amide], which Sweetness potency is on record?
Its Sweetness potency is 800 x sucrose.

With `C[C@@H](NC(=O)[C@@H](N)CC(=O)O)C(=O)NC1C(C)(C)S(=O)(=O)C1(C)C` [Example 17, L-Aspartyl-D-alanine N-(2,2,4,4-tetramethyl-1,1-dioxothietan-3-yl)amide] as the molecule, how does the Sweetness potency read?
Its Sweetness potency is 1000 x sucrose.

For `C[C@@H](NC(=O)[C@@H](N)CC(=O)O)C(=O)NC(C1CC1)C1CC1` [[I, R^a =CH3, R=CH(Δ)2], L-Aspartyl-D-alanine N-(dicyclopropylcarbinyl)amide], which Sweetness potency is on record?
The Sweetness potency was 1200 x sucrose.

For `CC(C)NC(=O)[C@H](NC(=O)[C@@H](N)CC(=O)O)C(C)C` [Example 24, L-Aspartyl-D-valine N-isopropylamide] (H-Asp-[dV]-NHiPr), which Sweetness potency is on record?
Its Sweetness potency is 1-2 x sucrose.

With `CC[C@@H](NC(=O)[C@@H](N)CC(=O)O)C(=O)NC(C1CC1)C1CC1` [Example 20, L-Aspartyl-D-2-aminobutyric acid N-(dicyclopropylcarbinyl)amide] as the molecule, how does the Sweetness potency read?
Its Sweetness potency is 500 x sucrose.

Assay: not given
Settings: prior art values (U.S. 3,492,131; Mazur et al.; Sukehiro et al.); cited from earlier work

For `CC(C)OC(=O)[C@@H](C)NC(=O)[C@@H](N)CC(=O)O` [L-aspartyl-D-alanine isopropyl ester] (H-Asp-[dA]-OiPr), which “sweetness relative to sucrose” value is on record?
The value was “up to 125 times sucrose”.
